The source of these data is ChEMBL document CHEMBL1201862, “PubChem BioAssay data set” (2004).

Test systems include BT-549; XF498; DLD-1; DMS-273; DMS-114; SNB-78; HOP-18; LXFL 529; RXF 631.
Experiment in all cases: growth of human tumour cells (NCI), 48 h

Each structure is given as a SMILES string.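 How tested: cells in 96-well plates exposed to compound for 48 hours at five concentrations. Abbreviation: GI50, concentration required for 50% inhibition of growth.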 Active and inactive are the calls of the source. Rule as the data show it: active = GI50 up to about 1.1 µM and inactive = higher. Bounds are passed on as bounds.

As for `N#C[BH2-][n+]1cn(C2CC(OP(=O)(O)OCC3OC(n4ccc(N)nc4=O)CC3O)C(CO)O2)c2nc(N)[nH]c(=O)c21` (stereo not given), the GI50 in the assay on BT-549 is > 100 µM (inactive).
For `CCC1=CC2CN3CCc4c([nH]c5ccccc45)C(C(=O)OC)(C2)C13` (stereo not given), the GI50 was 35.7 µM (inactive) in the assay on XF498; 45.9 µM (inactive) in the assay with DLD-1; 48.6 µM (inactive) in the assay on DMS-273; 39.4 µM (inactive) with DMS-114; 64.7 µM (inactive) in the assay with SNB-78; 47.9 µM (inactive) in the assay with HOP-18.
Turning to `CC1=C(Cl)C=CP(=O)(Oc2ccccc2)C1` (stereo not given), the GI50 in the assay with LXFL 529 was 15.3 µM (inactive); in the assay on XF498 it was 57.7 µM (inactive); in the assay on DMS-273 it was 27.5 µM (inactive); in the assay on DMS-114, 25.4 µM (inactive); in the assay on SNB-78, 41.1 µM (inactive); with HOP-18, 23.1 µM (inactive).
As for `Nc1nc(Cl)cc(NCCO)n1`, in the assay with BT-549, the GI50 is > 100 µM (inactive).
`CC1OC(OC2C(OC(=O)[C@]34CCC(C)(C)C[C@H]3C3=CC[C@@H]5[C@@]6(C)CC[C@H](OC7OC(CO)C(O)C(O)C7OC7OC(CO)C(O)C(O)C7O)C(C)(C)[C@@H]6CC[C@@]5(C)[C@]3(C)CC4)OCC(O)C2O)C(O)C(OC2OCC(O)C(O)C2O)C1OC1OCC(O)C(OC2OCC(O)C(O)C2O)C1O` (stereo not given in full): the GI50 in the assay on BT-549 is 8.28 µM (inactive).
`COc1ccc2[nH]c3c(C)c4c(c(C)c3c2c1)CN(C)C=C4`: the GI50 with BT-549 is 1.97 µM (inactive); in the assay with LXFL 529, 0.218 µM (active); with XF498 it was 1.07 µM (active); with DLD-1 it was 1.92 µM (inactive); with DMS-273, 0.75 µM (active); in the assay with DMS-114 it was 0.398 µM (active). Further, the figures for the GI50 in the assay on SNB-78 and with HOP-18 were 0.432 µM (active) and 7.38 µM (inactive), respectively.
Regarding `CCC/C(Cl)=N/OC(=O)Nc1cc(C(F)(F)F)ccc1OC`, the GI50 in the assay on BT-549 is 15.5 µM (inactive).
Consider `Fc1cc(-c2cc(-c3ccccc3)no2)c(Cl)cc1Cl`, for which, in the assay with BT-549, the GI50 is 18.5 µM (inactive).
With `O=C1C2=Cc3ccccc3OC2(O)Oc2ccc(O)cc21` (stereo not given), the GI50 in the assay on BT-549 was 4.71 µM (inactive).
In the case of `C=CCN1C(=O)NC(=O)/C(=C/c2c3ccccc3cc3ccccc23)C1=O`, the GI50 with XF498 was 21.8 µM (inactive); in the assay with DLD-1, 18.9 µM (inactive); in the assay with DMS-273, 20.8 µM (inactive); with DMS-114 it was 19.1 µM (inactive); with SNB-78, 21.1 µM (inactive).
For `COc1ccc(Cc2nc3cc(C(F)(F)F)ccc3n2CCCN(C)C)cc1`, in the assay on BT-549, the GI50 was 15.3 µM (inactive).
With `CN1Cc2ccccc2C2(COc3ccccc3C2=O)C1` (stereo not given), the GI50 with LXFL 529 is 76.6 µM (inactive); in the assay on DLD-1, 92.9 µM (inactive); with DMS-273, > 100 µM (inactive); in the assay with DMS-114, > 100 µM (inactive); with SNB-78, > 100 µM (inactive); with HOP-18, > 100 µM (inactive).
Consider `CNc1ccc([N+](=O)[O-])cc1C(=O)N1CCC[C@H]1CO`, for which, in the assay with BT-549, the GI50 is > 100 µM (inactive).
Consider `c1ccc2c(c1)nc1n2CNCC1`, for which the GI50 in the assay with BT-549 was > 100 µM (inactive).
With `CC(C)(C)C(=O)OCC1CCC(n2cnc3c(=O)[nH]c(N)nc32)O1` (stereo not given), the GI50 in the assay with XF498, in the assay with DMS-273, in the assay on DMS-114, in the assay with SNB-78 and in the assay with HOP-18 was > 100 µM (inactive) throughout.
Regarding `COc1cc(/C=C/C(=O)OCC23CC[C@@]4(C(=O)O)CCC(C)[C@H](C)C4C2=CCC2[C@@]4(C)CC[C@H](O)C(C)(C)C4CC[C@]23C)ccc1O` (stereo not given in full), the GI50 with BT-549 was 19.5 µM (inactive).
For `c1ccc(C(=NCCC2CNc3ccccc32)c2ccccc2)cc1` (stereo not given), the GI50 with BT-549 is > 100 µM (inactive).
Turning to `COc1ccc(Sc2ccccc2[N+](=O)[O-])cc1`, the GI50 with LXFL 529 is 27.5 µM (inactive); in the assay with DLD-1, 24.8 µM (inactive); with DMS-273, 4.98 µM (inactive); with RXF 631 it was 9.75 µM (inactive); in the assay with SNB-78, 26.4 µM (inactive); in the assay with HOP-18, > 100 µM (inactive).
Turning to `COc1cccc2c1C(=O)c1c(O)c3c(c(O)c1C2=O)C[C@](O)(C(=O)CO)CC3OC1CC(N)C(OC2CCCCO2)C(C)O1` (stereo not given in full), the GI50 in the assay with XF498 is 0.0678 µM (active); with DLD-1 it was 0.675 µM (active); with DMS-273 it was 0.019 µM (active); in the assay on SNB-78, 1.24 µM (inactive); in the assay with HOP-18, 0.383 µM (active).
Turning to `FC(F)(F)c1ccc2c(c1)nc(Cc1ccc(Cl)cc1)n2CC1CCCN2CCCCC12` (stereo not given), the GI50 in the assay with BT-549 is 11.5 µM (inactive).
On to `C/C(=N\NC(=O)C[N+](C)(C)C)c1sc(-c2cccnc2)nc1C`, for which the GI50 is 67 µM (inactive) in the assay with LXFL 529; > 100 µM (inactive) in the assay on XF498; > 100 µM (inactive) in the assay with DLD-1; > 100 µM (inactive) with DMS-273; > 100 µM (inactive) with DMS-114; > 100 µM (inactive) with RXF 631. Also, the GI50 in the assay with SNB-78 was > 100 µM (inactive).
As to `O=C1CC(O)c2cscc21` (stereo not given), in the assay with BT-549, the GI50 is > 100 µM (inactive).
Consider `C(=N/NC1=NCCN1)/c1c2ccccc2c(/C=N\NC2=NCCN2)c2ccccc12`, for which the GI50 with XF498 was 0.0828 µM (active); in the assay on DLD-1 it was 2.83 µM (inactive); with DMS-273, 0.0759 µM (active); with SNB-78, 0.171 µM (active); in the assay with HOP-18 it was 0.168 µM (active).
As for `NNc1[nH]c(=S)[nH]c1C(N)=O`, the GI50 in the assay on BT-549 was > 100 µM (inactive).
Turning to `CCCCN(CCCC)C(=O)C(=O)C(C(=O)c1ccc(OC)cc1)c1ccc(OC)cc1` (stereo not given), the GI50 in the assay on LXFL 529 is > 100 µM (inactive); with DLD-1 it was > 100 µM (inactive); in the assay with DMS-114, 78.7 µM (inactive); in the assay on RXF 631, > 100 µM (inactive); in the assay on SNB-78 it was > 100 µM (inactive); in the assay with HOP-18 it was > 100 µM (inactive).
For `C/C(=N/NC(=S)Nc1ccccc1C)c1ccccn1`, in the assay on BT-549, the GI50 is 3.14 µM (inactive).
On to `CCCCCCCCCc1cc(O)c(O)cc1CCCCCCCCC`, for which the GI50 with BT-549 was > 10 µM (inactive).
As for `O=C(c1ccccc1)c1c(CC(O)c2ccncc2)n(C(=O)c2ccccc2)c2ccccc12` (stereo not given), the GI50 in the assay with LXFL 529 is 18.8 µM (inactive); with DLD-1 it was 26.2 µM (inactive); with DMS-273 it was 17.9 µM (inactive); in the assay with DMS-114 it was 16.9 µM (inactive).
As for `COc1ccc(-c2cc(O)c3cccnc3n2)cc1`, the GI50 in the assay with BT-549 is 77.4 µM (inactive).
On to `Cn1c(=O)oc2cc(C(=S)N3CCCCC3)ccc21`, for which the GI50 with BT-549 is > 100 µM (inactive).
For `[O-]/[N+](=C\c1ccccc1OC(=S)S)c1ccc(Cl)cc1`, the GI50 in the assay on BT-549 was 24.1 µM (inactive).
On the same count and under the same terms, for `CC(=O)Oc1c(C)c2c(c3ccccc13)OC(C)(C)C2` the value was 24.7 µM (inactive).
`CN(C(=O)c1ccco1)C(=S)N1CCN(c2ccccn2)CC1`: the GI50 in the assay on LXFL 529, with XF498, with DLD-1, in the assay on DMS-273, in the assay with SNB-78 and with HOP-18 was > 100 µM (inactive) in each case.
As to `COC1/C=C/C(C)C(C(C)C(OC)C(C)CCC(=O)C(C)C(CCC(=O)O)OC)OC(=O)/C=C/C=C(\C)CC(OC)CC2=CC(=O)O[C@@H](C(C)C(OC)CC(OC)/C=C/C(C)C(OC)C1)[C@H]2O` (stereo not given in full), the GI50 in the assay on BT-549 is 0.661 µM (active).
As to `c1ccc(-c2c3c(nc4c2CC[C@H]4NC2=NCCN2)[C@@H](NC2=NCCN2)CC3)cc1`, in the assay on BT-549, the GI50 is > 40.3 µM (inactive).
`COc1ccc2c(c1)CCCN2S(=O)(=O)c1ccccc1[N+](=O)[O-]`: the GI50 with BT-549 is 9.06 µM (inactive).
For the molecule `Cc1cc(Nc2ccc(S(=O)(=O)O)c3cc(S(=O)(=O)O)cc(S(=O)(=O)O)c23)c2ccccc2n1`, in the assay with BT-549, the GI50 was > 100 µM (inactive).
Take `Cn1cc2ccccc2c1-c1nc(F)nc(Nc2ccc(N)cc2)n1`: the GI50 in the assay with LXFL 529 is 16 µM (inactive); with XF498, 12.5 µM (inactive); in the assay with DLD-1, 13 µM (inactive); in the assay on DMS-273 it was 10.2 µM (inactive); with DMS-114, 17.7 µM (inactive); in the assay on RXF 631, 18.3 µM (inactive). The GI50 with SNB-78 was 15.2 µM (inactive).
With `Cc1cn(C2CC(O)C(Cn3nncc3Cn3cnc4c(N)ncnc43)O2)c(=O)[nH]c1=O` (stereo not given), the GI50 in the assay with BT-549 was > 100 µM (inactive).
For the molecule `Cc1ccc2nnc(NS(=O)(=O)c3cc(C)c(Cl)cc3S)n2n1`, the GI50 with BT-549 is > 100 µM (inactive).
Still for that read-out and setting: the same measure for `C[C@]12CC[C@H](O)CC1=CC[C@@H]1[C@@H]2CC[C@]2(C)NC(=O)/C(=C\c3ccccc3)C[C@@H]12`: 17 µM (inactive).
For `COc1cc(C(c2cc(OC)c(OC)c(OC)c2)N2C(=O)CCC2C(=O)O)cc(OC)c1OC` (stereo not given), the GI50 in the assay on BT-549 was > 100 µM (inactive).
Same read-out and setting: for `CCOC(=O)c1c2cccccc-2nc1Nc1cccc2c(C)ccnc12` the value was > 10 µM (inactive); for `Cc1cc(C#N)c(Nc2ccc(F)cc2[N+](=O)[O-])s1`, 24.4 µM (inactive).
As for `O=C(CCC(=O)Nc1ccc(Cl)c(Cl)c1)CC(=O)c1ccc2ccccc2c1`, the GI50 was 42.7 µM (inactive) in the assay on LXFL 529; > 100 µM (inactive) in the assay with DLD-1; 62.4 µM (inactive) with DMS-273; 86.5 µM (inactive) in the assay on DMS-114; > 100 µM (inactive) in the assay with RXF 631; > 100 µM (inactive) in the assay on SNB-78. Also, the GI50 with HOP-18 is > 100 µM (inactive).
In the case of `CCOC(=O)c1nc2ccccc2nc1Nc1ccc(F)cc1`, the GI50 with BT-549 was 16.2 µM (inactive).
Still for that read-out and setting: for `O=C1/C(=C\c2cccc(Oc3ccccc3)c2)S(=O)(=O)C(c2ccccc2)N1c1cc(Cl)ccc1Cl` (stereo not given) the value was 18 µM (inactive); for `Cc1cn(C2CC(n3cc(Cn4cc(I)c(=O)[nH]c4=O)nn3)C(CO)O2)c(=O)[nH]c1=O` (stereo not given), > 100 µM (inactive).
With `C/C(Cc1ccc2c(c1)OCO2)=N\N=c1\sc2ccccc2n1C`, the GI50 with BT-549 is > 100 µM (inactive).
Consider `N#Cc1sc2c(c1O)c(=O)n(-c1ccccc1)c(=S)n2-c1ccccc1`, for which the GI50 in the assay with BT-549 is > 100 µM (inactive).
Turning to `C=CC(=O)C#Cc1cnc(OC)nc1OC`, the GI50 with BT-549 is 12.3 µM (inactive).
Turning to `COC1OC(CO)C(O)C(OC(=O)c2cc(O)c(O)c(O)c2)C1OC(=O)c1cc(O)c(O)c(O)c1` (stereo not given), the GI50 in the assay with BT-549 was > 100 µM (inactive).
Take `O=C(N/N=C\c1ccc([N+](=O)[O-])cc1)Nc1ccccc1`: the GI50 with BT-549 is > 100 µM (inactive).
Turning to `c1ccc(COC2C3COC(O3)C(OCc3ccccc3)C2OCc2ccccc2)cc1` (stereo not given), in the assay with BT-549, the GI50 is > 100 µM (inactive).
For `O=C1CC2[C@@H](N3CCCC3)CCC(N1Cc1ccccc1)C2(O)O` (stereo not given in full), in the assay on BT-549, the GI50 was > 100 µM (inactive).
Still for that read-out and setting: for `COc1ccc(C2(C3c4cc(OC)c(OC)cc4CCN3C)SCCCS2)cc1O` (stereo not given) the value was > 100 µM (inactive).
